Assay results taken from patent US20100248255A1, “NOVEL PEPTIDES” (KYOWA HAKKO KOGYO CO., LTD, priority 2005, published 2010).
Where two headings read alike, the source gives them in different places.

Legend:
[1] = direct administration to the paraventricular nucleus of the hypothalamus of male rats; Non-Patent Document 6; cited from earlier work
pituitary gland = assay: Aequorin luminescence, pituitary gland of apoaequorin-expressing mice; format: cell-based, mouse; settings: organ pieces, peptide final concentrations of 1 μmol/L and of 5 μmol/L
Text: (§1) Whether Peptides 1 to 5, 9 and 10 synthesized in Example 2 have the activity of increasing intracellular calcium ion concentration was investigated using the organs of transgenic mice introduced with the apoaequorin gene and systemically expressing apoaequorin (hereinafter referred to as apoaequorin-expressing mice). In apoaequorin-expressing mouse cells, light is emitted when apoaequorin binds to a calcium ion in the presence of the luminescent substrate coelenterazine and thus the intracellular calcium ion concentration can be monitored. Patent Document (WO02/010371) discloses the method for producing apoaequorin-expressing mice, method for evaluating biologically active substances that use biological samples derived from the mice, and experimental results of evaluating biologically active peptides using the mouse organs as shown below. […] Therefore, apoaequorin-expressing mice can be used in the evaluation of the physiological activities of novel peptides.
(§2) Apoaequorin-expressing mice were produced according to the method disclosed in Reference Example 4 of Patent Document (WO02/010371). The apoaequorin-expressing mice were sacrificed, individual organs including thymus, spleen, bone, blood vessel, heart, kidney, adrenal gland, pancreas, pituitary gland, and uterus, were removed; and each of the organs was cut into small cubes of approximately 1 to 2 mm^3. Next, in 5-mL tubes (Rohren-Tubes; manufactured by Sarstedt, No. 55.476), three portions of each of the prepared organs were added to 50 μL of a 10 μmol/L solution of coelenterazine (manufactured by Molecular Probes) dissolved in RPMI 1640 medium, and these were cultured at 37° C. for three hours. After culturing, RPMI 1640 medium was added, and then Peptides 1 to 5, 9 and 10 dissolved in RPMI 1640 medium were added 25 seconds after the addition of RPMI 1640 until each peptide had final concentrations of 1 μmol/L and of 5 μmol/L, and the relative luminescence levels were measured every second immediately after the addition of RPMI 1640 medium by using a luminometer (AutoLumat LB953, manufactured by Berthold).

kidney = assay: Aequorin luminescence, kidney of apoaequorin-expressing mice; format: cell-based, mouse; settings: organ pieces, peptide final concentrations of 1 μmol/L and of 5 μmol/L
Text: (§3) Whether Peptides 1 to 5, 9 and 10 synthesized in Example 2 have the activity of increasing intracellular calcium ion concentration was investigated using the organs of transgenic mice introduced with the apoaequorin gene and systemically expressing apoaequorin (hereinafter referred to as apoaequorin-expressing mice). In apoaequorin-expressing mouse cells, light is emitted when apoaequorin binds to a calcium ion in the presence of the luminescent substrate coelenterazine and thus the intracellular calcium ion concentration can be monitored. Patent Document (WO02/010371) discloses the method for producing apoaequorin-expressing mice, method for evaluating biologically active substances that use biological samples derived from the mice, and experimental results of evaluating biologically active peptides using the mouse organs as shown below. […]
(§4) Apoaequorin-expressing mice were produced according to the method disclosed in Reference Example 4 of Patent Document (WO02/010371). […] After culturing, RPMI 1640 medium was added, and then Peptides 1 to 5, 9 and 10 dissolved in RPMI 1640 medium were added 25 seconds after the addition of RPMI 1640 until each peptide had final concentrations of 1 μmol/L and of 5 μmol/L, and the relative luminescence levels were measured every second immediately after the addition of RPMI 1640 medium by using a luminometer (AutoLumat LB953, manufactured by Berthold).

spleen = assay: Aequorin luminescence, spleen of apoaequorin-expressing mice; format: cell-based, mouse; settings: organ pieces, peptide final concentrations of 1 μmol/L and of 5 μmol/L
Text: as §1, §2

uterus [2] = assay: Aequorin luminescence, uterus of apoaequorin-expressing mice; format: cell-based, mouse; settings: organ pieces, peptide final concentrations of 1 μmol/L and of 5 μmol/L
Text: as §1, §2

[3] = tested on: vascular cells of the apoaequorin-expressing mice; assay: Intracellular calcium ion increase (aequorin luminescence), blood vessel of apoaequorin-expressing mice; format: cell-based, mouse; settings: for luminescence in the blood vessel: organ pieces, peptide final concentrations of 1 μmol/L and of 5 μmol/L; for intracellular calcium concentration in vascular cells (RLU per second): 5 μmol/L of peptide, added at 25 seconds
Description: (§5) A heart or blood vessel is collected from transgenic mice systemically expressing apoaequorin (WO02/010371) produced by introducing an apoaequorin gene expression vector into fertilized eggs. The obtained heart or blood vessel is cut finely into pieces, suspended in a medium containing coelenterazine, and then incubated to incorporate coelenterazine into the cells to form aequorin (a complex of apoaequorin and coelenterazine). Since aequorin luminesces upon binding to intracellular calcium ions, the relative luminescence level in cells before and after addition of a medium containing the peptide or a pharmaceutically acceptable salt thereof is measured in a luminometer every second over time and is used as an indicator of intracellular calcium ion concentration. Increase in the relative luminescence level due to addition of the peptide or pharmaceutically acceptable salt thereof confirms that the peptide or pharmaceutically acceptable salt thereof has the activity to increase intracellular calcium ion concentration.
as §1, §2

bone = assay: Aequorin luminescence, bone of apoaequorin-expressing mice; format: cell-based, mouse; settings: organ pieces, peptide final concentrations of 1 μmol/L and of 5 μmol/L
Text: as §3, §4

adrenal gland [4] = assay: Aequorin luminescence, adrenal gland of apoaequorin-expressing mice; format: cell-based, mouse; settings: organ pieces, peptide final concentrations of 1 μmol/L and of 5 μmol/L
Text: as §3, §4

[5] = tested on: antiserum (rabbit, Peptide 7-KLH conjugate as antigen); assay: Binding specificity of antiserum by competitive RIA with [125I]-labeled Peptide 1
Description: As controls, reactions that use RIA buffer instead of the antiserum to measure non-specific binding, and reactions […] that use RIA buffer instead of VGF-derived peptide solutions to measure the maximum binding level were carried out. Reactions for non-specific binding were performed in quadruplicates, and the other reactions were performed in duplicates, and for each of the reactants, the immune complex was precipitated as in the above-mentioned antibody titer measurements, and its radioactivity (cpm) was measured. The average radioactivity of non-specific binding reaction is defined as non-specific binding level N, the radioactivity value for each VGF-derived peptide addition reaction is defined as Y, and the radioactivity value of maximum binding reaction is defined as Z. The percentage ratio (B/B0) of antiserum specific binding level (B) with peptide addition to the maximum binding level (B0), was determined using the following formula.
B/B0 (%)={(Y−N)/(Z−N)}×100
Accordingly, the amount of peptide that achieves 50% B/B0, more specifically, the amount of peptide that yields 50% inhibition of the maximum binding level, was used as an indicator of the peptide binding activity to the antiserum.
The amounts of peptide/tube used for performing the measurements were 0.5, 1, 2, 4, 8, 16, 32, 64, 128, 256, 512 and 1024 fmol for Peptide 1; 1, 2, 4, 8, 16, 32, 64, 128, 256, 512 and 1024 fmol for Peptide 2; 1, 3.3, 10, 33, 100, 333, 1000, 3300, 10,000, 33,000, 100,000, 333,000 and 1,000,000 fmol for Peptide 3; and 1,000, 10,000, 100,000 and 1,000,000 fmol for Peptide 8.

[6] = tested on: cardiac cells of the apoaequorin-expressing mice; assay: Intracellular calcium ion increase (aequorin luminescence), heart of apoaequorin-expressing mice; format: cell-based, mouse; settings: for intracellular calcium concentration in cardiac cells (RLU per second): added at 25 seconds; for luminescence in the heart: organ pieces, peptide final concentrations of 1 μmol/L and of 5 μmol/L
Description: as §5, §1, §2

thymus = assay: Aequorin luminescence, thymus of apoaequorin-expressing mice; format: cell-based, mouse; settings: organ pieces, peptide final concentrations of 1 μmol/L and of 5 μmol/L
Text: as §1, §2

[7] = tested on: vascular cells of the apoaequorin-expressing mice; settings: final concentration of 1 μmol/L; reported in WO02/010371; cited from earlier work
adrenal gland [8] = settings: final concentration of 1 μmol/L; reported in WO02/010371; cited from earlier work
uterus [9] = settings: final concentration of 1 μmol/L; reported in WO02/010371; cited from earlier work
[10] = target: antiserum showing an antibody titer of 9×10^5 (rabbit antiserum raised against the conjugate between Peptide 7 and KLH); assay: competitive RIA against [^125I]-labeled Peptide 1
[11] = VGF-derived peptides, sequentially diluted

In the case of “rat VGF (577-617): partial peptide of rat VGF (556-617), positions 577-617 (HHPDLEAQARRAQEEADAEERRLQEQEELENYIEHVLLHRP; UniProt P20156 577-617, looked up, fragment)”, the erection inducing activity [1] is listed as “showed an erection inducing activity”.

In the case of “rat VGF (556-576): partial peptide of rat VGF, positions 556-576”, the erection inducing activity [1] is listed as “this activity was not observed”.

With “Peptide 3: positions 554 to 583 of the amino acid sequence of human VGF, termini unmodified (H-TLQPPSALRRRHYHHALPPSRHYPGREAQA-OH)” the “luminescence in the pituitary gland” value (pituitary gland) was “luminescence was observed”, the “luminescence in the kidney” value (kidney) was “luminescence was observed” and the “luminescence in the spleen” value (spleen) was “luminescence was observed”. For the same molecule, the “luminescence in the uterus” value (uterus [2]) was “luminescence was observed”, the “luminescence in the blood vessel” value [3] was “luminescence was observed” and the “luminescence in the bone” value (bone) was “luminescence was observed”. The “luminescence in the adrenal gland” value (adrenal gland [4]) was “luminescence was observed”, the “inhibition of antiserum binding to [125I]-labeled Peptide 1” value (from here on “inhibition of antiserum binding”) [5, 11] was “dose-dependent inhibition of antiserum binding but the inhibition was weak” and the “antiserum binding relative to the Peptide 1 binding” value ([5]; fraction of the Peptide 1 binding) was 1/10000. The “amount required to show the same degree of inhibition as Peptides 1 and 2” value ([5]; relative to Peptides 1 and 2) was “approximately 10,000 folds”, the “intracellular calcium concentration in cardiac cells (RLU per second)” value ([6]; 1 μmol/L of peptide) was “increase of intracellular calcium concentration” and the “luminescence in the heart” value [6] was “luminescence was observed”. The “luminescence in the thymus” value (thymus) was “luminescence was observed”.

With HYHHALPPSRHYP [Peptide 1] the “luminescence in the pituitary gland” value (pituitary gland) was “luminescence was observed”, the “luminescence in the uterus” value (uterus [2]) was “luminescence was observed” and the “inhibition of antiserum binding” value [5, 11] was “same degree of quantity-dependent inhibition”. The “amount of peptide for 50% inhibition of the maximum binding level (50% B/B0)” value ([5]; antiserum diluted 9×10^5 folds, 4° C. for 40 hours) was 7.5 fmol, the “intracellular calcium concentration in cardiac cells (RLU per second)” value ([6]; 1 μmol/L of peptide) was “increase of intracellular calcium concentration” and the “luminescence in the heart” value [6] was “luminescence was observed”. For the same molecule, the “luminescence in the thymus” value (thymus) was “luminescence was observed”.

In the case of “rat VGF (588-617): partial peptide of rat VGF (556-617), positions 588-617 (AQEEADAEERRLQEQEELENYIEHVLLHRP; UniProt P20156 588-617, looked up, fragment)”, the erection inducing activity [1] is given as “showed an erection inducing activity”.

With “Peptide 4: positions 586 to 615 of human VGF; same sequence as peptide V derived from bovine VGF (AQEEAEAEERRLQEQEELENYIEHVLLRRP; synthetic Peptide 4, positions 586-615 of human VGF, C-terminal VGF-derived peptide)” the “luminescence in the pituitary gland” value (pituitary gland) was “luminescence was observed”, the “luminescence in the spleen” value (spleen) was “luminescence was observed” and the “intracellular calcium concentration in vascular cells (RLU per second)” value [3] was “increase of intracellular calcium concentration”. For the same molecule, the “luminescence in the blood vessel” value [3] was “luminescence was observed” and the “luminescence in the thymus” value (thymus) was “luminescence was observed”.

In the case of “angiotensin II (DRVYIHPF) [non-VGF peptide]”, the “luminescence in the blood vessels” value [7] is given as “strong luminescence was observed”, the “inhibition of antiserum binding” value ([5]; non-VGF peptides at 1, 10, and 100 pmol) is given as “none of the peptides showed inhibition” and the “luminescence in the adrenal glands” value (adrenal gland [8]) is given as “strong luminescence was observed”. The “luminescence in the uterus” value (uterus [9]) was “strong luminescence was observed”.

For “rat VGF (599-617): partial peptide of rat VGF (556-617), positions 599-617 (LQEQEELENYIEHVLLHRP; UniProt P20156 599-617, looked up, fragment)”, the erection inducing activity [1] is given as “showed an erection inducing activity”.

In the case of “Peptide 10: positions 533 to 552 of the amino acid sequence of human VGF (EEDEVYPPGPYHPFPNYIRP; synthetic Peptide 10, positions 533-552 of human VGF, C-terminal VGF-derived peptide)”, the “intracellular calcium concentration in vascular cells (RLU per second)” value [3] is reported as “increase in the intracellular calcium concentration”, the “luminescence in the blood vessel” value [3] is reported as “luminescence was observed” and the “intracellular calcium concentration in cardiac cells (RLU per second)” value ([6]; 1 μmol/L of peptide) is reported as “increase of intracellular calcium concentration”. For the same molecule, the “luminescence in the heart” value [6] was “luminescence was observed”.

With “Peptide 9: positions 485 to 503 of the amino acid sequence of human VGF (NAPPEPVPPPRAAPAPTHV; synthetic Peptide 9, positions 485-503 of human VGF, C-terminal VGF-derived peptide)” the “intracellular calcium concentration in vascular cells (RLU per second)” value [3] was “increase of intracellular calcium concentration” and the “luminescence in the blood vessel” value [3] was “luminescence was observed”.

B1: Peptide 3 (SEQ ID NO: 2) (peptide)
peptide: H-TLQPPSALRRRHYHHALPPSRHYPGREAQA-OH
Work on B1 yielded a fold amount required for the same degree of inhibition as Peptides 1 and 2 [10] of 10000 fold.

B2: Peptide 5: positions 554 to 615 in the amino acid sequence of human VGF (peptide)
chain: TLQPPSALRRRHYHHALPPSRHYPGREAQARRAQEEAEAEERRLQEQEELENYIEHVLLRRP
modifications: synthetic Peptide 5, positions 554-615 of human VGF, C-terminal VGF-derived peptide
For B2, the “intracellular calcium concentration in cardiac cells (RLU per second)” value ([6]; 5 μmol/L of peptide) was “increase of intracellular calcium concentration” and the “luminescence in the heart” value [6] was “luminescence was observed”.
